# According to PubChem BioAssay AID268 (DTP/NCI, 2004):
# “And” between values parts separate entries of the source, which are not always exact repeats. Equal entries are not always repeated.
# Test system: CD2F1 mice, P1798 lymphosarcoma sc, tumor weight T/C
# Assay: NCI In Vivo Anticancer Drug Screen. Data for tumor model P1798 Lymphosarcoma (subcutaneous) in CD2F1 (CDF1) mice
# Conditions: endpoint: mean tumor weight, higher = larger tumour
# Method: The antitumor activity of compounds was measured in mice bearing transplantable tumors. Survival or tumor size were measured and the results are expressed as the measurement made in the treated group (T) divided by the measurement made in the vehicle treated control group (C). The tumor model used in this assay is P1798 Lymphosarcoma (subcutaneous) in CD2F1 (CDF1) mice
# [1] = dose: 12.5 mg/kg/injection, schedule: Q01DX005 (sc), vehicle: steriod suspending solution
# [2] = dose: 12.5 mg/kg/injection, schedule: Q01DX010 (sc), vehicle: steriod suspending solution
# [3] = dose: 25.0 mg/kg/injection, schedule: Q01DX005 (sc), vehicle: steriod suspending solution
# [4] = dose: 25.0 mg/kg/injection, schedule: Q01DX010 (sc), vehicle: steriod suspending solution
# [5] = dose: 50.0 mg/kg/injection, schedule: Q01DX005 (sc), vehicle: steriod suspending solution
# [6] = dose: 50.0 mg/kg/injection, schedule: Q02DX010 (sc), vehicle: steriod suspending solution
# [7] = dose: 100.0 mg/kg/injection, schedule: Q01DX005 (sc), vehicle: steriod suspending solution
# [8] = dose: 100.0 mg/kg/injection, schedule: Q02DX010 (sc), vehicle: steriod suspending solution
# [9] = dose: 50.0 mg/kg/injection, schedule: Q01DX010 (sc), vehicle: steriod suspending solution
# [10] = dose: 0.06 mg/kg/injection, schedule: Q01DX010 (ip), vehicle: saline
# [11] = dose: 0.25 mg/kg/injection, schedule: Q01DX010 (ip), vehicle: saline
# [12] = dose: 0.5 mg/kg/injection, schedule: Q01DX010 (ip), vehicle: saline
# [13] = dose: 1.0 mg/kg/injection, schedule: Q01DX010 (ip), vehicle: saline
# [14] = dose: 2.0 mg/kg/injection, schedule: Q01DX010 (ip), vehicle: saline
# [15] = dose: 200.0 mg/kg/injection, schedule: Q01DX010 (ip), vehicle: saline
# [16] = dose: 40.0 mg/kg/injection, schedule: Q01DX010 (ip), vehicle: saline
# [17] = dose: 0.63 mg/kg/injection, schedule: Q01DX010 (ip), vehicle: saline
# [18] = dose: 1.25 mg/kg/injection, schedule: Q01DX010 (ip), vehicle: saline
# [19] = dose: 50.0 mg/kg/injection, schedule: Q01DX010 (ip), vehicle: saline
# [20] = dose: 100.0 mg/kg/injection, schedule: Q01DX010 (ip), vehicle: saline
# [21] = dose: 12.5 mg/kg/injection, schedule: Q01DX010 (ip), vehicle: saline
# [22] = dose: 25.0 mg/kg/injection, schedule: Q01DX010 (ip), vehicle: saline
smiles,measurement,setting,value
CC(=O)O[C@]1(C(C)=O)CC[C@H]2[C@@H]3C[C@H](C)C4=CC(=O)C=C[C@]4(C)[C@@]3(F)[C@@H](O)C[C@@]21C,T/C,[1],32 % of control
same,T/C,[2],37 % of control and 39 % of control
same,T/C,[3],13 % of control
same,T/C,[4],15 % of control and 16 % of control and 36 % of control
same,T/C,"dose: 25.0 mg/kg/injection, schedule: Q02DX010 (sc), vehicle: steriod suspending solution",105 % of control
same,T/C,[5],1 % of control
same,T/C,[6],101 % of control
same,T/C,[7],3 % of control
same,T/C,[8],105 % of control
C[C@@H]1C[C@@]2(C)[C@@H](CC[C@@H]3[C@@H]2CC[C@]2(C)[C@@H](O)CC[C@@H]32)CC1=O,T/C,[2],118 % of control and 124 % of control
same,T/C,[4],100 % of control and 107 % of control
same,T/C,[9],101 % of control and 111 % of control
same,T/C,"dose: 100.0 mg/kg/injection, schedule: Q01DX010 (sc), vehicle: steriod suspending solution",109 % of control and 121 % of control
N#Cc1cn(C2OC(CO)C(O)C2O)c2ncnc(N)c12 (stereo not given),T/C,[10],86 % of control
same,T/C,"dose: 0.12 mg/kg/injection, schedule: Q01DX010 (ip), vehicle: saline",61 % of control
same,T/C,[11],69 % of control and 76 % of control
same,T/C,[12],72 % of control
same,T/C,[13],68 % of control
same,T/C,[14],62 % of control
Clc1ncnc2nc[nH]c12,T/C,"dose: 7.5 mg/kg/injection, schedule: Q01DX010 (ip), vehicle: saline",91 % of control
same,T/C,"dose: 15.0 mg/kg/injection, schedule: Q01DX010 (ip), vehicle: saline",84 % of control and 85 % of control
same,T/C,"dose: 30.0 mg/kg/injection, schedule: Q01DX010 (ip), vehicle: saline",102 % of control
same,T/C,"dose: 120.0 mg/kg/injection, schedule: Q01DX010 (ip), vehicle: saline",91 % of control
CN(C)CC(=O)c1ccc(O)c(O)c1,T/C,[15],122 % of control
same,T/C,"dose: 300.0 mg/kg/injection, schedule: Q01DX010 (ip), vehicle: saline",105 % of control
same,T/C,"dose: 450.0 mg/kg/injection, schedule: Q01DX010 (ip), vehicle: saline",72 % of control
same,T/C,"dose: 675.0 mg/kg/injection, schedule: Q01DX010 (ip), vehicle: saline",80 % of control
NC(N)=NCCCC(N)C(=O)NCCCCCCNCCCCCCNC(=O)C(N)CCCN=C(N)N (stereo not given),T/C,"dose: 5.0 mg/kg/injection, schedule: Q01DX010 (ip), vehicle: saline",102 % of control
same,T/C,"dose: 10.0 mg/kg/injection, schedule: Q01DX010 (ip), vehicle: saline",105 % of control
same,T/C,"dose: 20.0 mg/kg/injection, schedule: Q01DX010 (ip), vehicle: saline",84 % of control
same,T/C,[16],116 % of control
Nc1ncnc2c1ccn2C1OC(CO)C(O)C1O (stereo not given),T/C,"dose: 0.32 mg/kg/injection, schedule: Q01DX010 (ip), vehicle: saline",97 % of control
same,T/C,[17],101 % of control
same,T/C,[18],84 % of control
C[C@]12CC[C@@H]3c4ccc(O)cc4CC[C@H]3[C@@H]1CC(=O)[C@@H]2O,T/C,[2],94 % of control and 89 % of control
same,T/C,[4],92 % of control and 96 % of control
same,T/C,[9],78 % of control and 86 % of control
Cc1ccc2[nH]c3nc4cc(C)c(C)cc4nc3c2c1,T/C,[19],93 % of control
same,T/C,[20],76 % of control
C1CN1c1nc(N2CC2)nc(N2CC2)n1,T/C,[10],114 % of control
same,T/C,[12],29 % of control and 37 % of control
O=C(CNC(=O)OCc1ccccc1)NCCCCCCNCCCCCCNC(=O)CNC(=O)OCc1ccccc1,T/C,[19],120 % of control
same,T/C,[20],97 % of control
CN(N=O)C(=O)NC(C=O)C(O)C(O)C(O)CO (stereo not given),T/C,"dose: 22.5 mg/kg/injection, schedule: Q01DX010 (ip), vehicle: saline",43 % of control
same,T/C,[16],97 % of control
same,T/C,"dose: 45.0 mg/kg/injection, schedule: Q01DX010 (ip), vehicle: saline",53 % of control
same,T/C,"dose: 60.0 mg/kg/injection, schedule: Q01DX010 (ip), vehicle: saline",64 % of control
same,T/C,"dose: 90.0 mg/kg/injection, schedule: Q01DX010 (ip), vehicle: saline",24 % of control and 29 % of control
O=C(NCCCC(NC(=O)OCc1ccccc1)C(=O)NCCCNCCCCNCCCNC(=O)C(CCCNC(=O)OCc1ccccc1)NC(=O)OCc1ccccc1)OCc1ccccc1 (stereo not given),T/C,[17],156 % of control
same,T/C,[18],91 % of control
same,T/C,"dose: 2.5 mg/kg/injection, schedule: Q01DX010 (ip), vehicle: saline",111 % of control
Nc1nc(F)nc2c1ncn2C1OC(CO)C(O)C1O (stereo not given),T/C,[12],76 % of control
same,T/C,[13],94 % of control
same,T/C,[14],73 % of control
same,T/C,"dose: 3.0 mg/kg/injection, schedule: Q01DX010 (ip), vehicle: saline",62 % of control
same,T/C,"dose: 4.0 mg/kg/injection, schedule: Q01DX010 (ip), vehicle: saline",35 % of control
CC(=O)NC1=C(N2CC2)C(=O)C(NC(C)=O)=C(N2CC2)C1=O,T/C,[11],86 % of control
same,T/C,[12],45 % of control
COc1ccc2c(c1)CC[C@@H]1[C@@H]2CC[C@@]2(C)[C@H]1CC[C@@]2(O)C(F)=C(F)F,T/C,"dose: 111.0 mg/kg/injection, schedule: Q01DX010 (sc), vehicle: steriod suspending solution",12 % of control
same,T/C,"dose: 167.0 mg/kg/injection, schedule: Q01DX010 (sc), vehicle: steriod suspending solution",9 % of control
same,T/C,"dose: 250.0 mg/kg/injection, schedule: Q01DX010 (sc), vehicle: steriod suspending solution",10 % of control
same,T/C,"dose: 375.0 mg/kg/injection, schedule: Q01DX010 (sc), vehicle: steriod suspending solution",8 % of control
CCn1cnc2c(=S)nc[nH]c21,T/C,"dose: 62.5 mg/kg/injection, schedule: Q01DX010 (ip), vehicle: saline",96 % of control and 79 % of control
CS(=O)(=O)OCCC(=O)N1CCN(C(=O)CCOS(C)(=O)=O)CC1,T/C,[21],77 % of control
same,T/C,[22],71 % of control
same,T/C,[19],7 % of control
same,T/C,[20],4 % of control
CC(=O)NCCCCCCNC(C)=O,T/C,[19],112 % of control
same,T/C,[20],95 % of control
same,T/C,[15],119 % of control
same,T/C,"dose: 400.0 mg/kg/injection, schedule: Q01DX010 (ip), vehicle: saline",86 % of control
S=c1nc[nH]c2nc[nH]c12,T/C,"dose: 10.0 mg/kg/injection, schedule: Q01DX010 (ip), vehicle: alkali diluted with saline",90 % of control
same,T/C,"dose: 80.0 mg/kg/injection, schedule: Q01DX010 (ip), vehicle: alkali diluted with saline",35 % of control
CC(=O)[C@H]1CC[C@H]2[C@@H]3C[C@H](C)C4=CC(=O)CC[C@]4(C)[C@H]3C(=O)C[C@]12C,T/C,[1],89 % of control
same,T/C,[2],93 % of control and 95 % of control
same,T/C,[3],62 % of control
same,T/C,[4],92 % of control and 96 % of control
same,T/C,[5],41 % of control
same,T/C,[6],96 % of control
same,T/C,"dose: 50.0 mg/kg/injection, schedule: Q03DX004 (sc), vehicle: steriod suspending solution",43 % of control
same,T/C,"dose: 75.0 mg/kg/injection, schedule: Q01DX010 (sc), vehicle: steriod suspending solution",103 % of control
same,T/C,"dose: 75.0 mg/kg/injection, schedule: Q02DX010 (sc), vehicle: steriod suspending solution",89 % of control
same,T/C,[7],32 % of control
same,T/C,[8],93 % of control
same,T/C,"dose: 100.0 mg/kg/injection, schedule: Q03DX004 (sc), vehicle: steriod suspending solution",46 % of control
same,T/C,"dose: 200.0 mg/kg/injection, schedule: Q01DX010 (sc), vehicle: steriod suspending solution",22 % of control
CC(=O)Nc1c(Cl)cc2c(c1Cl)Cc1cc([N+](=O)[O-])ccc1-2,T/C,"dose: 15.0 mg/kg/injection, schedule: Q01DX011 (ip), vehicle: carboxymethylcellulose (CMC)",85 % of control
same,T/C,"dose: 65.0 mg/kg/injection, schedule: Q01DX011 (ip), vehicle: carboxymethylcellulose (CMC)",108 % of control
CCOC(N)=O,T/C,"dose: 125.0 mg/kg/injection, schedule: Q01DX010 (ip), vehicle: saline",95 % of control
same,T/C,"dose: 250.0 mg/kg/injection, schedule: Q01DX010 (ip), vehicle: saline",64 % of control
same,T/C,"dose: 500.0 mg/kg/injection, schedule: Q01DX010 (ip), vehicle: saline",23 % of control
O=C(C(=O)N1CC1)c1c[nH]c2ccccc12,T/C,"dose: 3.13 mg/kg/injection, schedule: Q01DX010 (ip), vehicle: saline",90 % of control
same,T/C,"dose: 6.25 mg/kg/injection, schedule: Q01DX010 (ip), vehicle: saline",105 % of control
same,T/C,[21],92 % of control and 99 % of control
same,T/C,[22],108 % of control
